Molecules are shown by their SMILES.

One assay deals with PGE2. The assay can be described thus: Inhibition of eicosanoid (prostaglandin E2) synthesis in vivo, carrageenan air-pouch model in rats. The arrangement: species or system rat. Conditions: oral, male rats. As for the experimental part: In this assay, an air-pouch is created in the rat and the PGE2 levels in the air-pouch exudate are measured by enzyme immunoassay. Briefly, male rats were anesthetized using a 60:40 CO2 :O2 mixture and subsequently injected subcutaneously with 20 ml of sterilized air, under aseptic conditions, in the proximal area of the dorsum. This injection of sterile air causes the creation of a subcutaneous "air pouch". The next day, a further 10 ml of sterile air was injected into the previously formed pouch using the same technique. […] Control rats received vehicle alone. After 30 minutes, 5 ml of a 0.5% solution of carrageenan (Sigma, Lambda Type IV) was injected into the air pouch. The rats were euthanized 3 or 6 h after the compound administration. […] The total exudate volume was recorded, and the samples were analyzed for PGE2 and 6-keto PGF1 by ELISA (Titerzyme®, PerSeptive Diagnostics, Boston, Mass.) and TxB2 by radioimmuno assay (New England Nuclear Research, Boston, Mass., Catalog No. NEK-037), according to the manufacturer's directions.
The mean concentrations of PGE2 were calculated for each group. The anti-inflammatory activity of test materials is expressed as the percent inhibition of PGE2 formation in the test group relative to the control group.

Assay [1] deals with carrageenan-induced paw edema. The assay can be described thus: Inhibition of carrageenan-induced paw edema in the rat. Format: in vivo. As to conditions: oral, female rats. As for the experimental part:
The anti-inflammatory activity of compounds of this invention was determined by measuring the inhibition of carrageenan-induced paw edema in the rat, using a modification of the method described in Winter C. A. et al., "Carrageenan-Induced Edema in Hind Paw of the Rat as an Assay for Anti-inflammatory Drugs" Proc. Soc. Exp. Biol. Med. 111, 544-547, (1962). This assay has been used as a primary in vivo screen for anti-inflammatoryactivity of most NSAIDs, and is considered predictive of human efficacy. Briefly, test materials were administered orally to female rats in a volume of 1 ml prepared as solutions or suspensions in an aqueous vehicle containing 0.9% sodium chloride, 0.5% sodium carboxymethyl-cellulose, 0.4% polysorbate 80, 0.9% benzyl alcohol and 97.3% distilled water. Control rats received vehicle alone. After 1 h 0.05 ml of a 0.5% solution of Carrageenan (Type IV Lambda, Sigma Chemical Co.) in 0.9% saline was injected into the subplantar region of the right hind paw. Three hours later the rats were euthanized in a carbon dioxide atmosphere; hind paws were removed by severing at the tatso-crural joint; and the left and right paws were weighed. The increase in weight of the right paw over the left paw was obtained for each animal and the mean increases were calculated for each group. The anti-inflammatory activity of the test materials is expressed as the percent inhibition of the increase in hind paw weight of the test group relative to the vehicle dosed control group.
The anti-inflammatory activities (expressed as % inhibition) of some of the compounds of the invention were: […]

Another assay concerns the target T1, COX II (Homo sapiens, UniProt P35354).
T1 construct: made in house; baculovirus-infected insect cells according to the cited Barnett et al. 1994 (own knowledge)
T1 sequence (P35354 18-604): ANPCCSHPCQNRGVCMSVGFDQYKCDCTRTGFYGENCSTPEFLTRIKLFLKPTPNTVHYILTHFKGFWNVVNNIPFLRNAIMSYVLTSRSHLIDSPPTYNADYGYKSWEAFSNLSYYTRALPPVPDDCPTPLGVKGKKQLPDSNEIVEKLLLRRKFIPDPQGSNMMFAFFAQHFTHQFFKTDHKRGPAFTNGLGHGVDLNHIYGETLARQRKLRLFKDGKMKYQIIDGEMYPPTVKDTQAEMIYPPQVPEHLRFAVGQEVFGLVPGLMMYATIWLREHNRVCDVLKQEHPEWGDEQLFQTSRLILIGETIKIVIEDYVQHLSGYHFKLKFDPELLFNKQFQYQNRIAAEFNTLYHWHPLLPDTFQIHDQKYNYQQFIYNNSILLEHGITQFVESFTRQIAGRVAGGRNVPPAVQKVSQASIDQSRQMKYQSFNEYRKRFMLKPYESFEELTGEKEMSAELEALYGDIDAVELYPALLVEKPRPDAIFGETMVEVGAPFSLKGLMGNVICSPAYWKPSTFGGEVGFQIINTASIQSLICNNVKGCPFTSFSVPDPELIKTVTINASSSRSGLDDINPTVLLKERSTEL
In words: Inhibition of COX II in vitro (radiometric assay, partially purified enzyme). Format: biochemical. How it is done: (§1) The COX I and COX II inhibitory activity of compounds of this invention in vitro was determined using partially purified COX I and COX II enzymes, prepared as described in J. Barnett et. al., Biochim. Biophys.
(§2) COX I and COX II samples were diluted with Tris-HCl buffer (SOmM Tris-HCl, pH 7.9) containing 2 mM EDTA and 10% glycerol and reconstituted by incubating first with 2 mM phenol for 5 minutes and then with 1 micromolar hematin for an additional 5 minutes. 125 μl of the reconstituted COX I or COX II enzyme were preincubated for 10 minutes at room temperature in a shaking water bath with the compounds of the invention dissolved in 2-15 μl of DMSO or the carrier vehicles (control samples). The enzyme reaction was initiated by adding 25 μl of 1-[14 C]arachidonic acid (80,000-100,000 cpm/tube; 20 micromolar final concentration) and the reaction was allowed to continue for an additional 45 seconds. The reaction was terminated by adding 100 μl of 2N HCl and 750 μl water. An aliquot (950 μl) of the reaction mixture was loaded onto a 1 ml C18 Sep-Pak column (J. T. Baker, Phillipsburg, N.J.) which had been previously washed with 2-3 ml methanol and equilibrated with 5-6 ml distilled water. Oxygenated products were quantitatively eluted with 3 ml of acetonitrile/water/acetic acid (50:50:0.1, v/v) and the radioactivity in the eluate determined in a scintillation counter.

In the next assay the target is T2, COX I (Homo sapiens, UniProt P23219).
T2 construct: made in house; baculovirus-infected insect cells according to the cited Barnett et al. 1994 (own knowledge)
T2 sequence (P23219 24-599): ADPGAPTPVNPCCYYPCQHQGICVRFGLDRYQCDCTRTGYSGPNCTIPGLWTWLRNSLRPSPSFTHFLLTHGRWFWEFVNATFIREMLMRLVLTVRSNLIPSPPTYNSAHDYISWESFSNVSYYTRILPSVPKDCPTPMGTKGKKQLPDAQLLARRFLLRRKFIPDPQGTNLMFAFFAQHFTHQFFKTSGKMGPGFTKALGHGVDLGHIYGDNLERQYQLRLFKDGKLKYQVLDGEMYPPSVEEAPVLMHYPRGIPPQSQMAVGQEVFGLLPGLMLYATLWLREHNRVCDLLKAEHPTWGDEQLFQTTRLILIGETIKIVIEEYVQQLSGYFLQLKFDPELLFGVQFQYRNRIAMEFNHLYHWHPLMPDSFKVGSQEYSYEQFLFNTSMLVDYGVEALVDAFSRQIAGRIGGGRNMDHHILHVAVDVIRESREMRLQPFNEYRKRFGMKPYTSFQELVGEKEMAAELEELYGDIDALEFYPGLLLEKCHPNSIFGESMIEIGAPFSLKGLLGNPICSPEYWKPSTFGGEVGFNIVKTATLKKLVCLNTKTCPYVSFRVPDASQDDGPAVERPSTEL
In words: Inhibition of COX I in vitro (radiometric assay, partially purified enzyme). The class given is biochemical. As for the experimental part: as §1, §2

For `COc1ccc2cc(S(N)(=O)=O)ccc2c1C(=O)c1ccc(F)cc1` [compound 1, 5-(4-fluorobenzoyl)-6-methoxy-2-naphthalenesulfonamide], the “% Inhibition of air pouch PGE2 formation” value in the assay on PGE2 (10 mg/Kg) stood at 92%. In assay [1] (10 mg/Kg), the “% Inhibition of paw edema” value turned out to be 29.94%. In addition, the values for the IC50 at COX II and on COX I were 510 nM and 20 µM, respectively.
In the case of `COc1ccc2cc(S(N)(=O)=O)ccc2c1C(=O)c1ccc(C)cc1` [compound 4, 5-(4-methylbenzoyl)-6-methoxy-2-naphthalenesulfonamide], the “% Inhibition of air pouch PGE2 formation” value in the assay on PGE2 (10 mg/Kg) was 74.6%. Further, the “% Inhibition of paw edema” value in assay [1] (10 mg/Kg) was 26.41%. Also, the IC50 (as a rule, the concentration needed to halve the response being measured) on COX II was determined as 840 nM; against COX I, 2.8 µM.
Regarding `CCOc1ccc2cc(S(N)(=O)=O)ccc2c1C(=O)c1ccc(F)cc1` [compound 5], the “% Inhibition of paw edema” value in assay [1] (30 mg/Kg) came out at 27.49%. Besides, the half-inhibitory concentration (IC50) turned out to be 560 nM against COX II and 0.46 µM on COX I.
`COc1ccc2cc(S(N)(=O)=O)ccc2c1C(=O)c1ccccc1F` [compound 14, 5-(2-fluorobenzoyl)-6-methoxy-2-naphthalenesulfonamide]: the “% Inhibition of air pouch PGE2 formation” value in the assay on PGE2 (10 mg/Kg) is 58.8%. In addition, the IC50 on COX II came out at 76 nM; on COX I it was 47.7 µM.
For `COc1ccc2cc(S(N)(=O)=O)ccc2c1C(=O)c1cccc(F)c1` [compound 15, 5-(3-fluorobenzoyl)-6-methoxy-2-naphthalenesulfonamide], the 50% inhibitory concentration (IC50) on COX II worked out at 680 nM; at COX I, 62.5 µM.
Turning to `COc1ccc2cc(S(N)(=O)=O)ccc2c1C(=O)c1ccccc1Br` [compound 17], the “% Inhibition of paw edema” value in assay [1] (30 mg/Kg) came to 19.56%.
For the compound `COc1ccc2cc(S(N)(=O)=O)ccc2c1C(=O)c1ccc(F)cc1F` [compound 20], the “% Inhibition of air pouch PGE2 formation” value in the assay on PGE2 (10 mg/Kg) was determined as 100%. Moreover, in assay [1] (30 mg/Kg), the “% Inhibition of paw edema” value turned out to be 33.85%. Further, the concentration for half-maximal inhibition (IC50) against COX II came out at 450 nM; at COX I, 6 µM.
Consider `COc1ccc2cc(S(N)(=O)=O)ccc2c1C(=O)c1ccccc1` [compound 23, 5-benzoyl-6-methoxy-2-naphthalenesulfonamide], for which, in the assay on PGE2 (10 mg/Kg), the “% Inhibition of air pouch PGE2 formation” value is 70.7%.
`COc1ccc2cc(S(N)(=O)=O)ccc2c1C(=O)c1ccc(F)cc1C(F)(F)F` [compound 42]: the half-inhibitory concentration (IC50) came out at 2000 nM against COX II and 40.9 µM against COX I.
As to `N#Cc1ccc2cc(S(N)(=O)=O)ccc2c1C(=O)c1ccc(F)cc1` [compound 64, 5-(4-fluorobenzoyl)-6-cyano-2-naphthalenesulfonamide], in the assay with PGE2 (0.5 mg/Kg), the “% Inhibition of air pouch PGE2 formation” value stood at 50%. In addition, the “% Inhibition of paw edema” value in assay [1] (6 mg/Kg) came to 30%. Further, the results for the concentration for half-maximal inhibition (IC50) against COX II and against COX I were 700 nM and 0.9 µM, respectively.
Regarding `Cc1ccc2cc(S(N)(=O)=O)ccc2c1C(=O)c1ccc(F)cc1` [compound 65, 5-(4-fluorobenzoyl)-6-methyl-2-naphthalenesulfonamide], the “% Inhibition of air pouch PGE2 formation” value with PGE2 (2 mg/Kg) is given as 50%. In addition, the “% Inhibition of paw edema” value in assay [1] (12 mg/Kg) was determined as 30%. In addition, the values for the 50% inhibitory concentration (IC50) on COX II and against COX I were 700 nM and 300 µM, respectively.
On to `NS(=O)(=O)c1ccc2c(C(=O)c3ccc(F)cc3)c(Cl)ccc2c1` [compound 66, 5-(4-fluorobenzoyl)-6-chloro-2-naphthalenesulfonamide], for which the “% Inhibition of air pouch PGE2 formation” value in the assay with PGE2 (1 mg/Kg) is listed as 50%. Moreover, in assay [1] (12 mg/Kg), the “% Inhibition of paw edema” value is reported as 30%. Moreover, the IC50 was found to be 300 nM against COX II and 100 µM against COX I.
`COc1ccc2cc(S(C)(=O)=O)ccc2c1C(=O)c1ccc(F)cc1` [compound 91, 5-(4-fluorobenzoyl)-6-methoxy-2-methylsulfonylnaphthalene]: the “% Inhibition of air pouch PGE2 formation” value in the assay with PGE2 (30 mg/Kg) was 58.1%. Further, the “% Inhibition of paw edema” value in assay [1] (10 mg/Kg) amounted to 29.48%. Also, the figures for the IC50 on COX II and against COX I were 920 nM and 90.8 µM, respectively.
`CS(=O)(=O)c1ccc2c(C(=O)c3ccc(F)cc3)c(O)ccc2c1` [compound 92, 5-(4-fluorobenzoyl)-6-hydroxy-2-methylsulfonylnaphthalene]: in assay [1] (30 mg/Kg), the “% Inhibition of paw edema” value is on record as 19.88%. Also, the IC50 against COX II was determined as 5900 nM; against COX I, 646 µM.
For `CS(=O)(=O)c1ccc2c(C(=O)c3ccccc3)c(O)ccc2c1` [compound 93, 5-benzoyl-6-hydroxy-2-methylsulfonylnaphthalene], the “% Inhibition of paw edema” value in assay [1] (30 mg/Kg) is recorded as 6.25%. The results for the IC50 against COX II and against COX I were 7840 nM and 436 µM, respectively.
As for `COc1ccc2cc(S(C)(=O)=O)ccc2c1C(=O)c1ccccc1` [compound 94, 5-benzoyl-6-methoxy-2-methylsulfonylnaphthalene], the “% Inhibition of air pouch PGE2 formation” value with PGE2 (10 mg/Kg) turned out to be 17.6%. In addition, the results for the IC50 against COX II and against COX I were 2430 nM and 805 µM, respectively.
Take `CS(=O)(=O)c1ccc2c(C(=O)c3ccc(F)cc3)cccc2c1` [compound 95, 5-(4-fluorobenzoyl)-2-methylsulfonylnaphthalene]: the “% Inhibition of paw edema” value in assay [1] (30 mg/Kg) is 15.5%. For the same compound, the IC50 was determined as 2730 nM at COX II and 1000 µM at COX I.
In the case of `CS(=O)(=O)c1ccc2c(C(=O)c3ccc(F)cc3)c(C#N)ccc2c1` [compound 96, 5-(4-fluorobenzoyl)-6-cyano-2-methylsulfonylnaphthalene], the “% Inhibition of air pouch PGE2 formation” value with PGE2 (1 mg/Kg) turned out to be 90%. The “% Inhibition of paw edema” value in assay [1] (30 mg/Kg) is on record as 38%. Moreover, the results for the IC50 against COX II and against COX I were 800 nM and more than 100 µM, respectively.
Take `CS(=O)(=O)c1ccc2c(C(=O)c3ccccc3)c(C#N)ccc2c1` [compound 97, 5-benzoyl-6-cyano-2-methylsulfonylnaphthalene]: the “% Inhibition of air pouch PGE2 formation” value in the assay with PGE2 (3 mg/Kg) is on record as 90%. Further, the “% Inhibition of paw edema” value in assay [1] (30 mg/Kg) came to 40%. In addition, the figures for the IC50 on COX II and against COX I were 800 nM and more than 100 µM, respectively.
Regarding `CS(=O)(=O)c1ccc2c(C(=O)c3ccc(Cl)cc3)c(Cl)ccc2c1` [compound 100], in the assay on PGE2 (3 mg/Kg), the “% Inhibition of air pouch PGE2 formation” value amounted to 63%. Further, the IC50 at COX II was 250 nM; against COX I, more than 100 µM.
Turning to `COc1ccc2cc(S(C)(=O)=O)ccc2c1C(=O)c1ccc(C)cc1` [compound 103], the IC50 against COX II came to 1500 nM; against COX I, 97 µM.
